Test results published in patent US20160354359A1, “C[…]-[…] A NET INHIBITOR FOR ADM[…] A BRAIN-DEAD, HEART-BEATING POTENTIAL ORGAN DONOR” (VIVOLINE MEDICAL AB, priority 2008, published 2016).

Tests used:
brain-dead body of a pig [1] = conditions: adrenaline and noradrenaline at constant 0.4 ml/hour
Description: In this experiment, adrenaline and noradrenaline was added at a constant rate of 0.4 ml/hour.

blood pressure = conditions: in vivo; cited from earlier work
brain-dead pigs = experiment: More than 20 experiments with pigs using cocaine in combination with adrenaline and noradrenaline, blood pressure over 24 hours; assay type: in vivo, pig; conditions: from initiation of the intervention and over 24 hours
Description: The inventor has performed more than 20 experiments with pigs and using cocaine in combination with adrenaline and noradrenaline.

[2] = tested on: brain-dead, heart-beating, respirated donor; conditions: blood circulation
Description: In order to test this hypothesis, other NET inhibitors were tested, such as desipramine and imipramine, which both are known to be NET inhibitors.

[3] = in vivo; cited from earlier work
[4] = target: NET (norepinephrine transporter) (Homo sapiens, UniProt P23975); conditions: cited from earlier work
alpha-1 = experiment: Potency as replacement of noradrenaline (alpha-1-agonist)
Description: In some embodiments, the adrenaline and/or noradrenaline may be partly or entirely replaced by an equivalent substance. For example, phenylephrine is an alpha-1-agonist and may replace noradrenaline.

brain-dead body of a pig [5] = experiment: Experiment 2: infusion of desipramine solution with adrenaline and noradrenaline, blood pressure
Description: In addition 1 mg of adrenaline and 1 mg of noradrenaline was included in the solution.

NET (norepinephrine transporter), sequence (P23975 whole entry, species assumed): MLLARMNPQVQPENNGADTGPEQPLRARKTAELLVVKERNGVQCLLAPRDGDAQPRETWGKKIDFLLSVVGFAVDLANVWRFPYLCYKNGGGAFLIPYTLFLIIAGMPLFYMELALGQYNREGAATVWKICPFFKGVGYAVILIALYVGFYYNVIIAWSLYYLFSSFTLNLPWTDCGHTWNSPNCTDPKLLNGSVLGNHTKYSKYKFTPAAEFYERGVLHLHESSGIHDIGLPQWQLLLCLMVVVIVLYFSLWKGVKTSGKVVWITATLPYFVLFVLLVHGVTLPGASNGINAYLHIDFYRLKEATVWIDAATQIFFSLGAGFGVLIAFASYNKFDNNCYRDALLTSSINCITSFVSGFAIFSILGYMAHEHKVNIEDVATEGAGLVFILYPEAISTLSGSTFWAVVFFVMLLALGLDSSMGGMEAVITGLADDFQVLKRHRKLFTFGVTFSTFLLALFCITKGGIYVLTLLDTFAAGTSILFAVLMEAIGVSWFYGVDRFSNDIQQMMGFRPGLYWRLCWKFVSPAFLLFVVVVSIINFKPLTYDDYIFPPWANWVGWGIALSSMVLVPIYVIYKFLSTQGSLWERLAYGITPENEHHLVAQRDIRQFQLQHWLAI

CN(C)CCCN1c2ccccc2CCc2ccccc21 [imipramine, Imipramine]
blood pressure reached after bolus (brain-dead body of a pig [1]; bolus at 24.5 hours, from about 80 mmHg): about 100 mmHg

CCN(CC)CC(=O)Nc1c(C)cccc1C [Lidocaine]
effect of infusion on blood pressure (blood pressure): vasodilatation and a lowering of the blood pressure

COC(=O)[C@H]1[C@@H](OC(=O)c2ccccc2)C[C@@H]2CC[C@H]1N2C [cocaine, benzoylmethyl ecgonine]
blood pressure maintained at a constant level (brain-dead pigs): 70 mmHg | effect of bolus on blood pressure (brain-dead body of a pig [1]; bolus of 2 mg at 21 hours): increase of the blood pressure | time after which the effect of the bolus ceased (brain-dead body of a pig [1]; bolus of 2 mg at 21 hours): about 3 hours | effect of addition together with noradrenaline on noradrenaline needed for vasoconstriction [2]: much lower levels of noradrenaline | half-life time [3]: about 1 hours

CNCCCN1c2ccccc2CCc2ccc(Cl)cc21 [Norclomipramine]
potency among typical NET inhibitors [4]: highest

CNCCCC1c2ccccc2C=Cc2ccccc21 [Protriptylin, Protriptyline]
potency among typical NET inhibitors [4]: highest

CNC[C@H](O)c1cccc(O)c1 [phenylephrine]
times less potent as noradrenaline (alpha-1): about 5 times

CNCCCN1c2ccccc2CCc2ccccc21 [desipramine, Desipramine]
half-life time [3]: 30 h | mean pressure reached on infusion (brain-dead body of a pig [5]; 3 mg desipramine, 1 mg adrenaline, 1 mg noradrenaline in 50 ml, 1.7 then 3.2 ml/hour, from a mean pressure of about 40 mmHg): 80 mmHg | blood pressure after infusion rate was decreased (brain-dead body of a pig [5]; infusion decreased to 2.5 then 1.7 ml/hour, never decreased further): about 60 mmHg

NC(=O)CC[C@@H]1NC(=O)[C@H](Cc2ccccc2)NC(=O)[C@H](Cc2ccc(O)cc2)NC(=O)[C@@H](N)CSSC[C@@H](C(=O)N2CCC[C@H]2C(=O)N[C@@H](CCCN=C(N)N)C(=O)NCC(N)=O)NC(=O)[C@H](CC(N)=O)NC1=O [ADH, vasopressin]
half-life-time [3]: about 15 minutes
